Test results from patent publication US20120083476A1, “HETEROARYL-SUBSTITUTED SPIROCYCLIC DIAMINE UREA MODULATORS OF FATTY ACID AMIDE HYDROLASE” (Janssen Pharmaceutica NV, priority 2009, published 2012).

Key:
CREAE mice = conditions: Baker 2001; cited from earlier work
rats [1] = conditions: WO 02/087569; cited from earlier work
rats [2] = conditions: WO 02/087569; cited from earlier work; remark: listed apart in the source
FAAH [3] = biological target: T1, FAAH (Homo sapiens, UniProt O00519); assay: Assay Method 1: human FAAH assay (3H-anandamide hydrolysis in cell homogenate); assay type: biochemical; set-up: expressed in transfected cells; host or cells: SK-N-MC cells stably transfected with human FAAH cDNA (G418 selection); alternatively T84 cell pellets; conditions: read-out: Assay 1 IC50
T1 sequence (O00519 1-579): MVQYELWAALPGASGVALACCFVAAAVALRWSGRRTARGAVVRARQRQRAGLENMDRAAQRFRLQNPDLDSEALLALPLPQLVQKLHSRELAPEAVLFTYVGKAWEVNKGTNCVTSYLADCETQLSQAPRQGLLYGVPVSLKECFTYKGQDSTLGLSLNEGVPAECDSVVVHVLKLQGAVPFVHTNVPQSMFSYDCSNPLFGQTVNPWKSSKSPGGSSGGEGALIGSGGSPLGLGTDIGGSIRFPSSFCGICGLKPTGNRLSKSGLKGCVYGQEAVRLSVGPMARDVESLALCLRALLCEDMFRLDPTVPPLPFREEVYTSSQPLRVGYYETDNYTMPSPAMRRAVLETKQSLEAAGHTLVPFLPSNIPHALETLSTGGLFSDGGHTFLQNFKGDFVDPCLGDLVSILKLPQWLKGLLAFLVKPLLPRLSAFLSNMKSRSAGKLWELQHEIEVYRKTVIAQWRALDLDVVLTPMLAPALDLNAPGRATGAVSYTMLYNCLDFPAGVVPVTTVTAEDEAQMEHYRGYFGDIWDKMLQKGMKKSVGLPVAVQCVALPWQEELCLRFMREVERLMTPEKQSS
Method in brief: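 Homogenates of T84 cells or SK-N-MC cells stably transfected with human FAAH, in pH 9 Tris/EDTA buffer with 0.02% Triton X-100. Incubated 1 h at rt with compound and 80 nM (final) [3H-ethanolamine]-anandamide. Released 3H-ethanolamine separated on charcoal filters and counted by scintillation.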

Rat FAAH = biological target: T2, Rat FAAH (Rattus norvegicus, UniProt P97612); assay: Assay Method 2: rat FAAH assay (3H-anandamide hydrolysis in cell homogenate); assay type: biochemical; conditions: read-out: Assay 2 IC50
T2 construct: expressed in transfected cells; host or cells: SK-N-MC cells stably transfected with rat FAAH cDNA (G418 selection)
T2 sequence (P97612 1-579): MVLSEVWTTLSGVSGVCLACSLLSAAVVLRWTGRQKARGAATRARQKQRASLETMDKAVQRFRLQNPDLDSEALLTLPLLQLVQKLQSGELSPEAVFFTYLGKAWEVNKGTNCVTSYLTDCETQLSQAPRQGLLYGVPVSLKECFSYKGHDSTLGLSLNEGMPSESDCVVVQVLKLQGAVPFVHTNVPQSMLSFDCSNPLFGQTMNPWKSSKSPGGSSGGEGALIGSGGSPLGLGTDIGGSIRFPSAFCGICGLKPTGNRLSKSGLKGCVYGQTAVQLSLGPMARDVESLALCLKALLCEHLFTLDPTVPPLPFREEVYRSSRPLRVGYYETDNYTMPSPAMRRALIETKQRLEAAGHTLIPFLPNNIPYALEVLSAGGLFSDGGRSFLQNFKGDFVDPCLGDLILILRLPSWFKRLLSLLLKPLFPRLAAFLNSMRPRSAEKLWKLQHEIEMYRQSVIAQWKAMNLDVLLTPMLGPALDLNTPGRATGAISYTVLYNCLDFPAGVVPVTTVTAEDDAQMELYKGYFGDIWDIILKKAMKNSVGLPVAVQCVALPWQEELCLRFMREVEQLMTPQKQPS
Method in brief: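 Homogenates of T84 cells or SK-N-MC cells stably transfected with rat FAAH, in pH 9 Tris/EDTA/glycerol/Triton buffer, incubated 1 h at room temperature with 3H-anandamide. Released labeled ethanolamine separated from substrate on activated charcoal and counted by scintillation; values averaged over runs.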

rats [4] = conditions: cited from earlier work
FAAH [5] = biological target: T1, FAAH; conditions: WO 04/033652; cited from earlier work
rats [6] = conditions: WO 04/033652; cited from earlier work
rats [7] = conditions: rat; Kathuria 2003; cited from earlier work

Row | IC50 (FAAH [3]) | IC50 (Rat FAAH) | SMILES | also measured
1 | – | – | CCCCCCCCCCCCCCCCS(=O)(=O)F [AM374] | spasticity in CREAE mice (CREAE mice): significantly reduce spasticity
2 | – | – | Cc1nc(-c2ccccc2)c(-c2ccccc2)n1CCCCCCNC(=O)Oc1ccccc1F [BMS-1] | analgesic effect in Chung spinal nerve ligation model (rats [1]): analgesic effect; analgesic effect in Hargraves test of acute thermal nociception (rats [2]): analgesic effect
3 | 30 nM | 1200 nM | O=C(Nc1cccnc1)N1CC2(CCN(Cc3cccc(Oc4ccccc4Cl)c3)CC2)C1 [Example 121, 7-[3-(2-Chloro-phenoxy)-benzyl]-2,7-diaza-spiro[3.5]nonane-2-carboxylic acid pyridin-3-ylamide] | –
4 | 50 nM | 1000 nM | O=C(Nc1cccnc1)N1CC2(CCN(Cc3cccc(Oc4cccc(Br)c4)c3)CC2)C1 [Example 122, 7-[3-(3-Bromo-phenoxy)-benzyl]-2,7-diaza-spiro[3.5]nonane-2-carboxylic acid pyridin-3-ylamide] | –
5 | 200 nM | 30 nM | O=C(Nc1cccnc1)N1CC2(CCN(Cc3cccc(Oc4ccc(Br)cc4)c3)CC2)C1 [Example 123, 7-[3-(4-Bromo-phenoxy)-benzyl]-2,7-diaza-spiro[3.5]nonane-2-carboxylic acid pyridin-3-ylamide] | –
6 | 300 nM | 400 nM | O=C(Nc1cccnc1)N1CC2(CCN(Cc3cccc(Oc4ccc(F)c(F)c4)c3)CC2)C1 [Example 124, 7-[3-(3,4-Difluoro-phenoxy)-benzyl]-2,7-diaza-spiro[3.5]nonane-2-carboxylic acid pyridin-3-ylamide] | –
7 | 2600 nM | 3000 nM | O=C(Nc1cccnc1)N1CC2(CCN(Cc3cccc(Oc4ccc(OC(F)(F)F)cc4)c3)CC2)C1 [Example 125, 7-[3-(4-Trifluoromethoxy-phenoxy)-benzyl]-2,7-diaza-spiro[3.5]nonane-2-carboxylic acid pyridin-3-ylamide] | –
8 | 160 nM | 1000 nM | O=C(Nc1cccnc1)N1CC2(CCN(Cc3cccc(Oc4ccc(C(F)(F)F)cc4)c3)CC2)C1 [Example 126, 7-[3-(4-Trifluoromethyl-phenoxy)-benzyl]-2,7-diaza-spiro[3.5]nonane-2-carboxylic acid pyridin-3-ylamide] | –
9 | 4000 nM | 1100 nM | N#Cc1ccc(Oc2cccc(CN3CCC4(CC3)CN(C(=O)Nc3cccnc3)C4)c2)cc1 [Example 127, 7-[3-(4-Cyano-phenoxy)-benzyl]-2,7-diaza-spiro[3.5]nonane-2-carboxylic acid pyridin-3-ylamide] | –
10 | 1700 nM | 8000 nM | O=C(Nc1cccnc1)N1CC2(CCN(Cc3cccc(Oc4ccc(S(=O)(=O)C(F)(F)F)cc4)c3)CC2)C1 [Example 129, 7-[3-(4-Trifluoromethanesulfonyl-phenoxy)-benzyl]-2,7-diaza-spiro[3.5]nonane-2-carboxylic acid pyridin-3-ylamide] | –
11 | 830 nM | 2500 nM | O=C(Nc1cccnc1)N1CC2(CCN(Cc3cccc(Oc4ccc5ncccc5c4)c3)CC2)C1 [Example 130, 7-[3-(Quinolin-6-yloxy)-benzyl]-2,7-diaza-spiro[3.5]nonane-2-carboxylic acid pyridin-3-ylamide] | –
12 | 330 nM | 3000 nM | O=C(Nc1cccnc1)N1CC2(CCN(Cc3cccc(C#Cc4ccccc4Cl)c3)CC2)C1 [Example 131, 7-[3-(2-Chloro-phenylethynyl)-benzyl]-2,7-diaza-spiro[3.5]nonane-2-carboxylic acid pyridin-3-ylamide] | –
13 | – | – | O=C(CCCCCCc1ccccc1)c1ncc(-c2ccccn2)o1 [OL-135] | analgesia in hot plate test (rats [4]): analgesic activity; inhibition of FAAH (FAAH [5]): potent inhibitor; analgesic activity in tail emersion test (rats [6]): analgesic activity
14 | – | – | NC(=O)c1cccc(-c2cccc(OC(=O)NC3CCCCC3)c2)c1 [URB-597] | analgesia in hot plate test (rats [4]): analgesic efficacy; analgesic efficacy in formalin test (rats [7]): analgesic efficacy
